According to PubChem BioAssay AID624129 (Sanford-Burnham Center for Chemical Genomics, 2012):
Active and inactive are the calls of the source. No rule for the calls is given here.

What was measured:
Test in all cases: CXCR6 receptor antagonists, dose response, cell-based, beta-arrestin, DiscoveRx, APJ panel, uHTS hits (AID 624129)
[1] = target: Beta-galactosidase (Escherichia coli) (UniProt Q8VNN2); details: CXCR6 beta-arrestin (DiscoveRx) antagonist cell assay, b-galactosidase
[2] = target: Apelin receptor (Homo sapiens) (UniProt P35414); details: CXCR6 beta-arrestin (DiscoveRx) antagonist cell assay, APJ
[3] = target: C-C chemokine receptor type 6 (Homo sapiens) (UniProt P51684); details: CXCR6 beta-arrestin (DiscoveRx) antagonist cell assay
[4] = target: C-X-C chemokine receptor type 6 (Homo sapiens) (UniProt O00574); details: CXCR6 beta-arrestin (DiscoveRx) antagonist cell assay
[5] = dose range 1, mean IC50 across replicates

C-X-C chemokine receptor type 6 (Homo sapiens), sequence (O00574 whole entry, looked up): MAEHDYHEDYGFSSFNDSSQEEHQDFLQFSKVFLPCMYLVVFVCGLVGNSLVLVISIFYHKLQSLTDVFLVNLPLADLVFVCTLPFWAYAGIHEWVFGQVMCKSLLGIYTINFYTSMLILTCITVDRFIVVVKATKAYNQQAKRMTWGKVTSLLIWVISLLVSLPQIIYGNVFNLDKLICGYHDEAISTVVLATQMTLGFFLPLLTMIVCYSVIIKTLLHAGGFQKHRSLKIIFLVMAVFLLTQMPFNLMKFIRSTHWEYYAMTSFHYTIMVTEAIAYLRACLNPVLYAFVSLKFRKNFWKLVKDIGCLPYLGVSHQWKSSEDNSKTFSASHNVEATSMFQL
Beta-galactosidase (Escherichia coli), sequence (Q8VNN2 whole entry, looked up): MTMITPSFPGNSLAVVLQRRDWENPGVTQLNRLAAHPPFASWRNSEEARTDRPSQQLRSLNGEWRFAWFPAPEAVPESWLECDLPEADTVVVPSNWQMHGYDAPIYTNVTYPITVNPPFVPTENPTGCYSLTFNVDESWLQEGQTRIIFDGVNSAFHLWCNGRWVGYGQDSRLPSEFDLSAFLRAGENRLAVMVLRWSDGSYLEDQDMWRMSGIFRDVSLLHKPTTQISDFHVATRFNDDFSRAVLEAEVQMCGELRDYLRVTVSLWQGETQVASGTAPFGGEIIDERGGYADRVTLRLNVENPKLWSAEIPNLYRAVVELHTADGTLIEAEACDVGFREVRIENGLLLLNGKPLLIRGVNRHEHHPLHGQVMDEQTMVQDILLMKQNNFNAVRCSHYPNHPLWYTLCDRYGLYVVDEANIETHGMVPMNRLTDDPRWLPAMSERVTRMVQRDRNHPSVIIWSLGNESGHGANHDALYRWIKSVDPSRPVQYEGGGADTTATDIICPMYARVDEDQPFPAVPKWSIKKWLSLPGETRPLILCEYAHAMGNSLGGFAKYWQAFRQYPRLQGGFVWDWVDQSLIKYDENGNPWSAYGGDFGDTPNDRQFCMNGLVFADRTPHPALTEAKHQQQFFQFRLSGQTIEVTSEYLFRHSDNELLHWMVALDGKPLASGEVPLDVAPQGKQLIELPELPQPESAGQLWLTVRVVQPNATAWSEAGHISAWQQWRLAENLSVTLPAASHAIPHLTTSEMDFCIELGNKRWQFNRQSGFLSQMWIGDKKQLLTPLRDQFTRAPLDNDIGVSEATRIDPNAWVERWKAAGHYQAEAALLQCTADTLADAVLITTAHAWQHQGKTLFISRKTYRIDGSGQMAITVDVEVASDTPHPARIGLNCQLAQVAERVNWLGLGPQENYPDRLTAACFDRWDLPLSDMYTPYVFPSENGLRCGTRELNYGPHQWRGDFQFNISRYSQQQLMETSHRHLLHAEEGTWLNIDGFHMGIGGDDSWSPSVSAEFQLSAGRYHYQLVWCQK

O=C(Nc1nc2c(F)cc(F)cc2s1)c1ccccn1
IC50 ([1]; dose range 1): > 80000 nM (inactive)
IC50 [1, 5]: > 80000 nM
IC50 ([2]; dose range 1): 798 nM
IC50 [2, 5]: 1590 nM
IC50 ([2]; run 2, dose range 1): 2380 nM
IC50 ([2]; run 3, dose range 1): > 80000 nM
IC50 ([3]; CCR6, dose range 1): 660 nM
IC50 ([3]; CCR6, dose range 1, mean IC50 across replicates): 1030 nM
IC50 ([3]; CCR6, run 2, dose range 1): 1400 nM
IC50 ([4]; CXCR6, dose range 1): 1400 nM
IC50 ([4]; CXCR6, dose range 1, mean IC50 across replicates): 1110 nM
IC50 ([4]; CXCR6, run 1, dose range 2): 803 nM
IC50 ([4]; CXCR6, run 2, dose range 1): 1220 nM
IC50 ([4]; CXCR6, run 2, dose range 2): 1000 nM
